# Target: human PDE10A (Homo sapiens (Human), UniProt Q9Y233)
# Assay: human PDE10A full length Scintillation Proximity Assay (SPA)
# Format: biochemical
# Details: 50 nM cGMP and 50 nM [3H]-cGMP, 20 minutes at room temperature; read-out: PDE10A inhibition IC50
# Summary of the method: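 Radiometric SPA read-out: after 20 min at room temperature with [^3H]-cGMP/cGMP substrate, zinc sulphate (18 mM) bead stop reagent added and counts read after 1 h. Non-specific signal defined without enzyme; full-length protein used.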
# Chain of human PDE10A (Q9Y233 other isoform, or with tags, fused parts or gaps): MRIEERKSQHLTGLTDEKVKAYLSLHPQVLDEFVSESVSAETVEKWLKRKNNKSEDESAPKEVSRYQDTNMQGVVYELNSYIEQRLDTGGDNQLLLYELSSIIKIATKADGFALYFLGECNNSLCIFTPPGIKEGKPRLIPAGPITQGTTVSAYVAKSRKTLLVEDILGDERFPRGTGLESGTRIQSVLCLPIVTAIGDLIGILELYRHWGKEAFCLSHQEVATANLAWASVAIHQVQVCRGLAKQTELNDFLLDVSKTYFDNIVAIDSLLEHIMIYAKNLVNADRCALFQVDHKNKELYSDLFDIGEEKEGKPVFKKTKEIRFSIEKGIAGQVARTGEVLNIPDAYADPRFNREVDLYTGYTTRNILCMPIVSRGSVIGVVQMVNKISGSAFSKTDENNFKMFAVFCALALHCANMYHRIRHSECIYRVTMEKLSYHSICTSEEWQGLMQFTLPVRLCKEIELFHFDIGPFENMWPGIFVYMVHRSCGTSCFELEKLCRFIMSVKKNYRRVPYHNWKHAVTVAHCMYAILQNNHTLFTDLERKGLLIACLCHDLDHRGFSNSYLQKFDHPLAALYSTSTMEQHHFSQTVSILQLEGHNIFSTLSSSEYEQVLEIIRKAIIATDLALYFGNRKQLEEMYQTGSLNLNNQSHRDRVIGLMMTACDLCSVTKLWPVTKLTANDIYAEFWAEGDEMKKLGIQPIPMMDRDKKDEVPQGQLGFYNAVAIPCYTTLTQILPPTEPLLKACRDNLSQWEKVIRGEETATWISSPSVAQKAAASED
row,IC50 [nM],Compound
1,8.5,"CNC(=O)c1nn(C)cc1NC(=O)c1nc(C2CCOC2)ccc1Nc1cncnc1 (centres unmarked) [Example 127, 3-(Pyrimidin-5-ylamino)-6-(tetrahydro-furan-3-yl)-pyridine-2-carboxylic acid (1-methyl-3-methylcarbamoyl-1H-pyrazol-4-yl)-amide]"
2,1.3,"CNC(=O)c1ncccc1NC(=O)c1nc(C2CC2)cnc1Nc1cncnc1 [Example 128, 6-Cyclopropyl-3-(pyrimidin-5-ylamino)-pyrazine-2-carboxylic acid (2-methylcarbamoyl-pyridin-3-yl)-amide]"
3,6,"CN(C)C(=O)c1ncccc1NC(=O)c1nc(C2CC2)cnc1Nc1cncnc1 [Example 129, 6-Cyclopropyl-3-(pyrimidin-5-ylamino)-pyrazine-2-carboxylic acid (2-dimethylcarbamoyl-pyridin-3-yl)-amide]"
4,1.4,"CNC(=O)c1c(NC(=O)c2nc(C(C)C)cnc2Nc2cncnc2)cnn1C [Example 131, 6-Isopropyl-3-(pyrimidin-5-ylamino)-pyrazine-2-carboxylic acid (1-methyl-5-methylcarbamoyl-1H-pyrazol-4-yl)-amide]"
5,16.9,"CCn1ncc(NC(=O)c2nc(C3CC3)cnc2Nc2cncnc2)c1C(=O)NCC(C)(C)O [Example 132, 6-Cyclopropyl-3-(pyrimidin-5-ylamino)-pyrazine-2-carboxylic acid [1-ethyl-5-(2-hydroxy-2-methyl-propylcarbamoyl)-1H-pyrazol-4-yl]-amide]"
6,6.7,"CCn1ncc(NC(=O)c2nc(C3CC3)cnc2Nc2cncnc2)c1C(=O)NC [Example 133, 6-Cyclopropyl-3-(pyrimidin-5-ylamino)-pyrazine-2-carboxylic acid (1-ethyl-5-methylcarbamoyl-1H-pyrazol-4-yl)-amide]"
7,21.5,"CC(C)Cn1ncc(NC(=O)c2nc(C3CC3)cnc2Nc2cncnc2)c1C(=O)NCC(C)(C)O [Example 134, 6-Cyclopropyl-3-(pyrimidin-5-ylamino)-pyrazine-2-carboxylic acid [5-(2-hydroxy-2-methyl-propylcarbamoyl)-1-isobutyl-1H-pyrazol-4-yl]-amide]"
8,3.6,"Cn1ncc(NC(=O)c2nc(C3CC3)cnc2Nc2cncnc2)c1C(=O)NC1(C)COC1 [Example 136, 6-Cyclopropyl-3-(pyrimidin-5-ylamino)-pyrazine-2-carboxylic acid [1-methyl-5-(3-methyl-oxetan-3-ylcarbamoyl)-1H-pyrazol-4-yl]-amide]"
9,58.7,"CNC(=O)c1c(NC(=O)c2nc(C3CC3)cnc2Nc2cncnc2)cnn1CC(C)C [Example 137, 6-Cyclopropyl-3-(pyrimidin-5-ylamino)-pyrazine-2-carboxylic acid (1-isobutyl-5-methylcarbamoyl-1H-pyrazol-4-yl)-amide]"
10,24.9,"CC(C)n1ncc(NC(=O)c2nc(C3CC3)cnc2Nc2cncnc2)c1C(=O)NCC(C)(C)O [Example 138, 6-Cyclopropyl-3-(pyrimidin-5-ylamino)-pyrazine-2-carboxylic acid [5-(2-hydroxy-2-methyl-propylcarbamoyl)-1-isopropyl-1H-pyrazol-4-yl]-amide]"
11,11.6,"CNC(=O)c1c(NC(=O)c2nc(C3CC3)cnc2Nc2cncnc2)cnn1C(C)C [Example 139, 6-Cyclopropyl-3-(pyrimidin-5-ylamino)-pyrazine-2-carboxylic acid (1-isopropyl-5-methylcarbamoyl-1H-pyrazol-4-yl)-amide]"
12,3,"Cn1ncc(NC(=O)c2nc(C3CC3)cnc2Nc2cncnc2)c1C(=O)NCCC(C)(C)O [Example 140, 6-Cyclopropyl-3-(pyrimidin-5-ylamino)-pyrazine-2-carboxylic acid [5-(3-hydroxy-3-methyl-butylcarbamoyl)-1-methyl-1H-pyrazol-4-yl]-amide]"
13,1.1,"Cn1ncc(NC(=O)c2nc(C3CC3)cnc2Nc2cncnc2)c1C(=O)NCC(C)(C)CO [Example 142, 6-Cyclopropyl-3-(pyrimidin-5-ylamino)-pyrazine-2-carboxylic acid [5-(3-hydroxy-2,2-dimethyl-propylcarbamoyl)-1-methyl-1H-pyrazol-4-yl]-amide]"
14,23.3,"Cn1ncc(NC(=O)c2nc(C3CC3)cnc2Nc2cncnc2)c1C(=O)N1CC(F)(F)C1 [Example 143, 6-Cyclopropyl-3-(pyrimidin-5-ylamino)-pyrazine-2-carboxylic acid [5-(3,3-difluoro-azetidine-1-carbonyl)-1-methyl-1H-pyrazol-4-yl]-amide]"
15,2.1,"Cn1ncc(NC(=O)c2nc(C3CC3)cnc2Nc2cncnc2)c1C(=O)NCC(F)(F)F [Example 144, 6-Cyclopropyl-3-(pyrimidin-5-ylamino)-pyrazine-2-carboxylic acid [1-methyl-5-(2,2,2-trifluoro-ethylcarbamoyl)-1H-pyrazol-4-yl]-amide]"
16,2.9,"Cn1ncc(NC(=O)c2nc(C3CC3)cnc2Nc2cncnc2)c1C(=O)NCC(F)F [Example 145, 6-Cyclopropyl-3-(pyrimidin-5-ylamino)-pyrazine-2-carboxylic acid [5-(2,2-difluoro-ethylcarbamoyl)-1-methyl-1H-pyrazol-4-yl]-amide]"
17,1.7,"Cn1ncc(NC(=O)c2nc(C3CC3)cnc2Nc2cncnc2)c1C(=O)NCC(O)C(F)(F)F (centres unmarked) [Example 146, 6-Cyclopropyl-3-(pyrimidin-5-ylamino)-pyrazine-2-carboxylic acid [1-methyl-5-(3,3,3-trifluoro-2-hydroxy-propylcarbamoyl)-1H-pyrazol-4-yl]-amide]"
18,1.2,"CNC(=O)c1c(NC(=O)c2nc(C3CC3)cnc2Nc2cncnc2)cnn1CCOC [Example 147, 6-Cyclopropyl-3-(pyrimidin-5-ylamino)-pyrazine-2-carboxylic acid [1-(2-methoxy-ethyl)-5-methylcarbamoyl-1H-pyrazol-4-yl]-amide]"
19,14.4,"CNC(=O)c1c(NC(=O)c2nc(C3CC3)ccc2Nc2cncnc2)cnn1C [Example 148, 6-Cyclopropyl-3-(pyrimidin-5-ylamino)-pyridine-2-carboxylic acid (1-methyl-5-methylcarbamoyl-1H-pyrazol-4-yl)-amide]"
20,8.5,"Cn1ncc(NC(=O)c2nc(C3CC3)cnc2Nc2cncnc2)c1C(N)=O [Example 150, 6-Cyclopropyl-3-(pyrimidin-5-ylamino)-pyrazine-2-carboxylic acid (5-carbamoyl-1-methyl-1H-pyrazol-4-yl)-amide]"
21,2.7,"COC(C)(C)CNC(=O)c1c(NC(=O)c2nc(C3CC3)cnc2Nc2cncnc2)cnn1C [Example 151, 6-Cyclopropyl-3-(pyrimidin-5-ylamino)-pyrazine-2-carboxylic acid [5-(2-methoxy-2-methyl-propylcarbamoyl)-1-methyl-1H-pyrazol-4-yl]-amide]"
22,3.4,"Cn1ncc(NC(=O)c2nc(C3CC3)cnc2Nc2cncnc2)c1C(=O)NC(C)(C)CO [Example 152, 6-Cyclopropyl-3-(pyrimidin-5-ylamino)-pyrazine-2-carboxylic acid [5-(2-hydroxy-1,1-dimethyl-ethylcarbamoyl)-1-methyl-1H-pyrazol-4-yl]-amide]"
23,16.1,"CN(CC(C)(C)O)C(=O)c1c(NC(=O)c2nc(C3CC3)cnc2Nc2cncnc2)cnn1C [Example 153, 6-Cyclopropyl-3-(pyrimidin-5-ylamino)-pyrazine-2-carboxylic acid {5-[(2-hydroxy-2-methyl-propyl)-methyl-carbamoyl]-1-methyl-1H-pyrazol-4-yl}-amide]"
